Patent publication US11479560B2, “OX2R compounds” (Board of Regents, The University of Texas System, priority 2018, dated 2022)

How the values were obtained:
[1] = Plasma and brain PK (IV / IP dosing)
[2] = BBB penetration (method not described); conditions: brain / plasma, iv, 5 mg/kg; read-out: unlabelled value after the PK data (matches brain/plasma AUClast ratio, 5mpk IV)
[3] = Plasma and brain PK (5 mg/kg IV); type: in vivo; conditions: female CD-1 mice; for Tmax / Cmax / AUC(0-t): mouse; for AUC(0-t): read-out: Plasma AUClast
[4] = Microsomes stability; type: in vitro ADME
[5] = Solubility remark; type: physicochemical; conditions: remark in words
[6] = in vitro; conditions: human, Caco-2
[7] = brain, read-out: Brain Tmax (converted)

For `Br.COCC(Cc1ccc(C)cc1)n1c(=N)n(C(C)c2ccc(C)cc2)c2cccnc21` (single isomer, unassigned) [WZ-II-149], the Cl_F_obs ([1]; Brain PK, 5 mg/Kg (5mpk) IV) was 1491.875 mL/min, the Vz_F_obs ([1]; Brain PK, 5 mg/Kg (5mpk) IV) was 286490.1 mL and the Cl_F_obs ([1]; Brain PK, 10 mpk IP) was 24837.56 mL/min. It also gave an HL_Lambda_z ([1]; Brain PK, 10 mpk IP) of 64.37 min, a Vz_F_obs ([1]; Brain PK, 10 mpk IP) of 2306714 mL and a Cl_F_obs ([1]; Plasma PK, 5 mg/Kg (5mpk) IV) of 1689.5566 mL/min. For the same molecule, the Vz_F_obs ([1]; Plasma PK, 5 mg/Kg (5mpk) IV) was 101565.51 mL, the Cl_F_obs ([1]; Plasma PK, 10 mpk IP) was 3706.43 mL/min and the HL_Lambda_z ([1]; Plasma PK, 10 mpk IP) was 38.92 min. For the same molecule, the Vz_F_obs ([1]; Plasma PK, 10 mpk IP) was 208114 mL,, the AUC(0-t) ([1]; brain, ip, 10 mg/kg) was 134 ng·h/mL and the Cmax ([1]; brain, ip, 10 mg/kg) was 77.8 ng/mL. It also gave a Tmax ([1]; brain, ip, 10 mg/kg) of 10 min, an AUC(0-t) ([1]; brain, iv, 5 mg/kg) of 1280 ng·h/mL and a Cmax ([1]; brain, iv, 5 mg/kg) of 1300 ng/mL. The Tmax ([1]; brain, iv, 5 mg/kg) was 10 min, the half-life ([1]; brain, iv, 5 mg/kg) was 133 min and the AUC(0-t) ([1]; plasma, ip, 10 mg/kg) was 1000 ng·h/mL. For the same molecule, the Cmax ([1]; plasma, ip, 10 mg/kg) was 638 ng/mL, the Tmax ([1]; plasma, ip, 10 mg/kg) was 10 min and the AUC(0-t) ([1]; plasma, iv, 5 mg/kg) was 1130 ng·h/mL. The Cmax ([1]; plasma, iv, 5 mg/kg) was 1050 ng/mL, the Tmax ([1]; plasma, iv, 5 mg/kg) was 10 min and the half-life ([1]; plasma, iv, 5 mg/kg) was 41.7 min. The Kp [2] was 1.13.

With `Br.Cc1ccc(CC(C(=O)N2CC(C#N)C2)n2c(=N)n(C(C)c3ccc(C)cc3)c3cccnc32)cc1` (single isomer, unassigned) [WZ-II-253] the Cl_F_obs ([1]; Brain PK, 5 mg/Kg (5mpk) IV) was 9.5 mL/min, the Vz_F_obs ([1]; Brain PK, 5 mg/Kg (5mpk) IV) was 642 mL, and the Cl_F_obs ([1]; Plasma PK, 5 mg/Kg (5mpk) IV) was 3.86 mL/min. For the same molecule, the Vz_F_obs ([1]; Plasma PK, 5 mg/Kg (5mpk) IV) was 221 mL, the AUC(0-t) ([1]; brain, iv, 5 mg/kg) was 209 ng·h/mL and the Cmax ([1]; brain, iv, 5 mg/kg) was 218 ng/mL. It also gave a Tmax ([1]; brain, iv, 5 mg/kg) of 10 min, a half-life ([1]; brain, iv, 5 mg/kg) of 47 min and an AUC(0-t) ([1]; plasma, iv, 5 mg/kg) of 518 ng·h/mL. The Cmax ([1]; plasma, iv, 5 mg/kg) was 651 ng/mL, the Tmax ([1]; plasma, iv, 5 mg/kg) was 10 min and the half-life ([1]; plasma, iv, 5 mg/kg) was 40 min.

In the case of `COCC(Cc1ccc(C)cc1)n1c(=N)n(C(c2ccc(C)cc2)C2CC2)c2ccccc21` (single isomer, unassigned) [ww6-61], the “Brain AUClast” value ([3]; brain) is reported as 38968.815 ng·min/mL, the “Brain Cmax” value ([3]; brain) is reported as 143.31 ng/mL and the “Brain HL_Lambda_z” value ([3]; brain) is reported as 134.1 min. The Tmax [3, 7] was 30 min, the Cmax ([3]; plasma) was 841 ng/mL and the AUC(0-t) ([3]; plasma) was 986 ng·h/mL. The Tmax ([3]; plasma, read-out: Plasma Tmax) was 10 min, the “Plasma Cl_F_obs” value ([3]; plasma) was 1.922 mL/min and the “Plasma HL_Lambda_z” value ([3]; plasma) was 74.04 min. For the same molecule, the “Plasma Vz_F_obs” value ([3]; plasma) was 205.3 mL, the microsomal CLint [4] was 17 µL/min/mg and the half-life ([4]; read-out: Microsomes stability T1/2) was 19 min.

Work on `Br.Cc1ccc(C[C@@H](C(=O)N2CC3(COC3)C2)n2c(=N)n(C(C)c3ccc(C)cc3)c3ccccc32)cc1` (stereo partly drawn) [WZ-II-151, (2S)-2-(2-imino-3-(1-(p-tolyl)ethyl)-2,3-dihydro-1H-benzo[d]imidazol-1-yl)-1-(2-oxa-6-azaspiro[3.3]heptan-6-yl)-3-(p-tolyl)propan-1-one] yielded a Cl_F_obs ([1]; Brain PK, 5 mg/Kg (5mpk) IV) of 22.9 mL/min, a Vz_F_obs ([1]; Brain PK, 5 mg/Kg (5mpk) IV) of 8876 mL and a Cl_F_obs ([1]; Plasma PK, 5 mg/Kg (5mpk) IV) of 2.39 mL/min. It also gave a Vz_F_obs ([1]; Plasma PK, 5 mg/Kg (5mpk) IV) of 453 mL, an AUC(0-t) ([1]; brain, iv, 5 mg/kg) of 93.1 ng·h/mL and a Cmax ([1]; brain, iv, 5 mg/kg) of 22.7 ng/mL. It also gave a Tmax ([1]; brain, iv, 5 mg/kg) of 10 min, a half-life ([1]; brain, iv, 5 mg/kg) of 269 min and an AUC(0-t) ([1]; plasma, iv, 5 mg/kg) of 908 ng·h/mL. It also gave a Cmax ([1]; plasma, iv, 5 mg/kg) of 869 ng/mL, a Tmax ([1]; plasma, iv, 5 mg/kg) of 10 min and a half-life ([1]; plasma, iv, 5 mg/kg) of 131 min.

In the case of `Cc1ccc(Cn2c(=N)n(C(CO)Cc3cc[nH]c(=O)c3)c3ccccc32)cc1` (centres unmarked) [ww4-89], the solubility [5] is reported as “solubility issue along with tauto- meriza- tion, only proton NMR and LC-MS”.

`C/N=c1\n(Cc2ccc(C)cc2)c2ccccc2n1C(CO)Cc1ccc(C)cc1` (centres unmarked) [ww4-276] showed a Papp A→B [6] of 2.19 ×10⁻⁶ cm/s, a Papp B→A [6] of 5.47 ×10⁻⁶ cm/s and an efflux ratio [6] of 2.5.

For `Cc1ccc(CC(CNC(=O)CO)n2c(=N)n([C@@H](C)c3ccc(C)cc3)c3ccccc32)cc1` (some centres unmarked) [ww5-189], the “Brain AUClast” value ([3]; brain) was 11291.545 ng·min/mL, the “Brain Cmax” value ([3]; brain) was 15.29 ng/mL and the “Brain HL_Lambda_z” value ([3]; brain) was 728.6 min. It also gave a Tmax [3, 7] of 30 min, a Cmax ([3]; plasma) of 600 ng/mL and an AUC(0-t) ([3]; plasma) of 691 ng·h/mL. The Tmax ([3]; plasma, read-out: Plasma Tmax) was 10 min, the “Plasma Cl_F_obs” value ([3]; plasma) was 2.72 mL/min and the “Plasma HL_Lambda_z” value ([3]; plasma) was 230.4 min. For the same molecule, the “Plasma Vz_F_obs” value ([3]; plasma) was 904.1 mL.

Work on `Cc1ccc(CC(CNC(=O)CF)n2c(=N)n(Cc3ccc(C)cc3)c3ccccc32)cc1` (centres unmarked) [ww5-308] yielded a Papp A→B [6] of 3.05 ×10⁻⁶ cm/s and a Papp B→A [6] of 8.72 ×10⁻⁶ cm/s.
